Measured values from PubChem BioAssay AID256 (DTP/NCI, 2004).
Where “and” joins values, the source holds several entries; their conditions need not be identical. Equal values may be shown once. Inconclusive results and toxic doses are left out. How the source made its calls: active means survival T/C of 150% or more; inactive means T/C below 125% in these data.

Test system: CD2F1 mice, L1210 leukemia ip, survival T/C
Experiment: NCI In Vivo Anticancer Drug Screen. Data for tumor model L1210 Leukemia (intraperitoneal) in CD2F1 (CDF1) mice
Conditions: endpoint: mean survival time, higher = longer survival
Summary of the method: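 In this screen, transplantable tumors were grown in mice given either the compound or its vehicle. Results were expressed as the treated measurement relative to the control measurement.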

[1] = dose: 25.0 mg/kg/injection, schedule: Q04DX002 (ip), vehicle: saline with Tween-80
[2] = dose: 50.0 mg/kg/injection, schedule: Q04DX002 (ip), vehicle: saline with Tween-80
[3] = dose: 100.0 mg/kg/injection, schedule: Q04DX002 (ip), vehicle: saline with Tween-80
[4] = dose: 100.0 mg/kg/injection, schedule: Q04DX002 (ip), vehicle: saline
[5] = dose: 200.0 mg/kg/injection, schedule: Q04DX002 (ip), vehicle: saline
[6] = dose: 400.0 mg/kg/injection, schedule: Q04DX002 (ip), vehicle: saline
[7] = dose: 100.0 mg/kg/injection, schedule: Q04DX003 (ip), vehicle: saline with Tween-80
[8] = dose: 200.0 mg/kg/injection, schedule: Q04DX003 (ip), vehicle: saline with Tween-80
[9] = dose: 400.0 mg/kg/injection, schedule: Q04DX003 (ip), vehicle: saline with Tween-80

Measured: T/C

CCOP(=O)(CC(=O)O)c1ccccc1 (stereo unspecified)
inactive: [1] 96 % of control | [2] 100 % of control | [3] 92 % of control

O=c1c2[nH]cnc2ncn1C1CCCC1
inactive: dose: 100.0 mg/kg/injection, schedule: Q01DX001 (ip), vehicle: other 100 % of control | dose: 200.0 mg/kg/injection, schedule: Q01DX001 (ip), vehicle: other 100 % of control | dose: 400.0 mg/kg/injection, schedule: Q01DX001 (ip), vehicle: other 101 % of control

CC(C)(C)C1OCCCO1
inactive: [4] 104 % of control | [5] 110 % of control | [6] 104 % of control

O=C(O)C(Cl)C(Cl)c1ccccc1 (stereo unspecified)
inactive: [4] 90 % of control | [5] 94 % of control | [6] 94 % of control

[O-][n+]1onc2ccc(Cl)cc21
inactive: dose: 100.0 mg/kg/injection, schedule: Q04DX003 (ip), vehicle: Klucel (hydroxypropylcellulose) (HPC) 102 % of control

Nc1cc(C(F)(F)F)ccc1/C(=C/c1ccc(Cl)cc1)C(=O)O
inactive: dose: 75.0 mg/kg/injection, schedule: Q04DX003 (ip), vehicle: saline 103 % of control | dose: 150.0 mg/kg/injection, schedule: Q04DX003 (ip), vehicle: saline 102 % of control

COC(=O)c1cc(C(=O)OC)c(C(=O)OC)cc1C(=O)OC
inactive: [7] 97 % of control | [8] 92 % of control | [9] 89 % of control

Cc1ccc(-c2oc3ccccc3c(=O)c2O)cc1
inactive: dose: 50.0 mg/kg/injection, schedule: Q01DX001 (ip), vehicle: saline 98 % of control | dose: 100.0 mg/kg/injection, schedule: Q01DX001 (ip), vehicle: saline 92 % of control | dose: 200.0 mg/kg/injection, schedule: Q01DX001 (ip), vehicle: saline 98 % of control | dose: 400.0 mg/kg/injection, schedule: Q01DX001 (ip), vehicle: saline 98 % of control

NC(=S)N/N=C/c1cc(-c2cccc(N)c2)ccn1
inactive: dose: 6.25 mg/kg/injection, schedule: Q01DX009 (ip), vehicle: saline with Tween-80 113 % of control | dose: 9.4 mg/kg/injection, schedule: Q01DX009 (ip), vehicle: saline with Tween-80 116 % of control and 104 % of control | dose: 12.5 mg/kg/injection, schedule: Q01DX009 (ip), vehicle: saline with Tween-80 115 % of control | dose: 18.8 mg/kg/injection, schedule: Q01DX009 (ip), vehicle: saline with Tween-80 115 % of control and 118 % of control | dose: 25.0 mg/kg/injection, schedule: Q01DX009 (ip), vehicle: saline with Tween-80 123 % of control | dose: 37.5 mg/kg/injection, schedule: Q01DX009 (ip), vehicle: saline with Tween-80 115 % of control and 119 % of control | dose: 75.0 mg/kg/injection, schedule: Q01DX009 (ip), vehicle: saline with Tween-80 89 % of control and 104 % of control and 107 % of control

CC(C)OC(=O)Nc1ccc(Cl)cc1
inactive: [7] 97 % of control | [8] 97 % of control | [9] 100 % of control

CCOC(=O)c1cc(=O)n(C)c2ccc(OCC)cc12
inactive: dose: 100.0 mg/kg/injection, schedule: Q01DX009 (ip), vehicle: saline sonified 101 % of control | [7] 100 % of control | dose: 200.0 mg/kg/injection, schedule: Q01DX009 (ip), vehicle: saline sonified 97 % of control | [8] 91 % of control | dose: 400.0 mg/kg/injection, schedule: Q01DX009 (ip), vehicle: saline sonified 97 % of control | [9] 91 % of control

O=c1[nH]c(=O)n(C2OC(CO)C(O)C(O)C2O)cc1F (stereo unspecified)
inactive: dose: 12.5 mg/kg/injection, schedule: Q01DX005 (ip), vehicle: water 105 % of control | dose: 25.0 mg/kg/injection, schedule: Q01DX005 (ip), vehicle: water 95 % of control | dose: 50.0 mg/kg/injection, schedule: Q01DX005 (ip), vehicle: water 101 % of control | dose: 100.0 mg/kg/injection, schedule: Q01DX005 (ip), vehicle: water 103 % of control | dose: 200.0 mg/kg/injection, schedule: Q01DX005 (ip), vehicle: water 94 % of control

Cc1cccc(N(C)C(=S)Oc2ccc3ccccc3c2)c1
inactive: dose: 50.0 mg/kg/injection, schedule: Q01DX009 (ip), vehicle: Klucel (hydroxypropylcellulose) (HPC) 112 % of control | dose: 100.0 mg/kg/injection, schedule: Q01DX009 (ip), vehicle: Klucel (hydroxypropylcellulose) (HPC) 89 % of control | dose: 200.0 mg/kg/injection, schedule: Q01DX009 (ip), vehicle: Klucel (hydroxypropylcellulose) (HPC) 89 % of control

CC1(CC2SCCCS2)SCCCS1
inactive: [1] 96 % of control | [2] 93 % of control | [3] 96 % of control | dose: 200.0 mg/kg/injection, schedule: Q04DX002 (ip), vehicle: saline with Tween-80 86 % of control

COc1ccc2c3csc4ccccc4c-3nc2c1
inactive: [7] 91 % of control
